Assay results published in ChEMBL document CHEMBL1201862, “PubChem BioAssay data set” (2004).
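Five compound concentrations were applied to cells in 96-well plates for 48 hours; endpoints were derived by simple linear interpolation of the resulting dose-response curve. GI50 = concentration required for 50% inhibition of growth.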 Activity calls are given as the source filed them. Rule as the data show it: active = GI50 up to about 1.1 µM and inactive = higher.

Assays:
Test in all cases: inhibition of tumour cell growth, NCI panel, 48 h
SN12C = tested on: SN12C
EKVX = tested on: EKVX
SK-OV-3 = tested on: SK-OV-3
NCI-H522 = tested on: NCI-H522
M14 = tested on: M14
KM12 = tested on: KM12
SK-MEL-28 = tested on: SK-MEL-28
786-0 = tested on: 786-0
LOX IMVI = tested on: LOX IMVI
COLO 205 = tested on: COLO 205
OVCAR-4 = tested on: OVCAR-4
MDA-N = tested on: MDA-N
HCC 2998 = tested on: HCC 2998
MOLT-4 = tested on: MOLT-4
MCF7 = tested on: MCF7
UACC-62 = tested on: UACC-62
K562 = tested on: K562
SF-268 = tested on: SF-268
OVCAR-5 = tested on: OVCAR-5
HT-29 = tested on: HT-29

Measured: GI50

O=[N+]([O-])c1ccc(C2=NOC(c3ccccc3)N2C23CC4CC(CC(C4)C2)C3)cc1 (stereo not given)
inactive: SN12C 46 µM | EKVX 48.1 µM | SK-OV-3 43.2 µM | NCI-H522 19 µM | M14 32.7 µM | KM12 27.4 µM | SK-MEL-28 58.5 µM | 786-0 17.6 µM | LOX IMVI 15.9 µM | COLO 205 30 µM | OVCAR-4 39.1 µM | MDA-N 26.7 µM | HCC 2998 39 µM | MOLT-4 17.5 µM | MCF7 24.8 µM | UACC-62 20.8 µM | K562 19.1 µM | SF-268 59.6 µM | OVCAR-5 14.4 µM | HT-29 21.3 µM

COc1ccc(C2SC(=N)Nc3c2c(C)nn3C(=O)c2ccc(Cl)cc2)cc1OC (stereo not given)
inactive: SN12C > 10 µM | EKVX > 10 µM | SK-OV-3 > 10 µM | NCI-H522 > 10 µM | M14 > 10 µM | KM12 > 10 µM | SK-MEL-28 > 10 µM | 786-0 > 10 µM | LOX IMVI > 10 µM | COLO 205 > 10 µM | OVCAR-4 > 10 µM | MDA-N > 10 µM | HCC 2998 > 10 µM | MOLT-4 > 10 µM | MCF7 > 10 µM | UACC-62 > 10 µM | K562 > 10 µM | SF-268 > 10 µM | OVCAR-5 > 10 µM | HT-29 > 10 µM

COc1ccc(OC)c(NC(=O)c2c(Cl)c(Cl)c(Cl)c(Cl)c2-c2nc3ccccc3[nH]2)c1
inactive: SN12C 80.4 µM | EKVX > 100 µM | SK-OV-3 > 100 µM | NCI-H522 > 100 µM | M14 > 100 µM | KM12 > 100 µM | SK-MEL-28 > 100 µM | 786-0 > 100 µM | LOX IMVI > 100 µM | COLO 205 > 100 µM | OVCAR-4 > 100 µM | MDA-N > 100 µM | HCC 2998 > 100 µM | MOLT-4 56.2 µM | MCF7 76.7 µM | UACC-62 > 100 µM | K562 > 100 µM | SF-268 > 100 µM | OVCAR-5 > 100 µM | HT-29 > 100 µM

CC(=O)OCC1OC(OC(C)=O)C(Nc2ncc(-c3ccc(C)cc3)s2)C(OC(C)=O)C1OC(C)=O (stereo not given)
inactive: SN12C 18.2 µM | EKVX 14.3 µM | SK-OV-3 44.1 µM | NCI-H522 15.7 µM | M14 18.1 µM | KM12 > 10 µM | SK-MEL-28 17.4 µM | 786-0 16.6 µM | LOX IMVI 13.2 µM | COLO 205 17.7 µM | OVCAR-4 16.9 µM | MDA-N 18.4 µM | HCC 2998 29.7 µM | MOLT-4 11 µM | MCF7 20.3 µM | UACC-62 14.4 µM | K562 15.7 µM | SF-268 16.5 µM | OVCAR-5 43.1 µM | HT-29 21.2 µM

C[C@H]1O[C@@H](C(C)(C)C)OC(=O)[C@@H]1C(OC(=O)c1ccccc1)c1cccc2ccccc12 (stereo not given in full)
inactive: SN12C > 100 µM | EKVX > 100 µM | SK-OV-3 > 100 µM | NCI-H522 > 100 µM | M14 > 100 µM | KM12 > 100 µM | SK-MEL-28 > 100 µM | 786-0 > 100 µM | LOX IMVI > 100 µM | COLO 205 > 100 µM | OVCAR-4 > 100 µM | MDA-N > 100 µM | HCC 2998 > 100 µM | MOLT-4 > 100 µM | MCF7 > 100 µM | UACC-62 > 100 µM | K562 > 100 µM | SF-268 > 100 µM | OVCAR-5 > 100 µM | HT-29 > 100 µM

O=C(O)CCSC(=S)Nc1ccc([N+](=O)[O-])cc1
inactive: SN12C > 74 µM | EKVX > 51.4 µM | SK-OV-3 > 100 µM | NCI-H522 > 46.5 µM | M14 > 85.9 µM | KM12 > 80.2 µM | SK-MEL-28 41.3 µM | 786-0 > 100 µM | LOX IMVI 31.9 µM | COLO 205 97.9 µM | OVCAR-4 > 56.5 µM | MDA-N 23.1 µM | HCC 2998 > 89.9 µM | MOLT-4 8.38 µM | MCF7 40.1 µM | UACC-62 21.6 µM | K562 27.2 µM | SF-268 34.5 µM | OVCAR-5 > 100 µM | HT-29 > 94 µM

N#CC12C(=O)N3C(=NC(c4ccccc4)NC3c3ccccc3)C1(C#N)C(c1ccccc1)NC1=C2CCCC1 (stereo not given)
inactive: SN12C > 100 µM | EKVX > 100 µM | SK-OV-3 > 100 µM | NCI-H522 > 100 µM | M14 > 100 µM | KM12 > 100 µM | SK-MEL-28 > 100 µM | 786-0 > 100 µM | LOX IMVI > 100 µM | COLO 205 > 100 µM | OVCAR-4 > 100 µM | MDA-N > 100 µM | HCC 2998 > 100 µM | MOLT-4 > 100 µM | MCF7 > 100 µM | UACC-62 > 100 µM | K562 > 100 µM | SF-268 > 100 µM | OVCAR-5 > 100 µM | HT-29 > 100 µM

CCOP(=O)(O)C(Nc1ccc(/N=N/c2ccccc2)cc1)c1cccc(C(Nc2ccc(/N=N/c3ccccc3)cc2)P(=O)(O)OCC)c1 (stereo not given)
inactive: SN12C 52 µM | EKVX 57.4 µM | SK-OV-3 81.3 µM | NCI-H522 20.8 µM | M14 40.6 µM | KM12 32.6 µM | SK-MEL-28 32.3 µM | 786-0 60 µM | LOX IMVI 19.9 µM | COLO 205 21.6 µM | OVCAR-4 47.2 µM | MDA-N 60.5 µM | HCC 2998 25.2 µM | MOLT-4 16.7 µM | MCF7 35.2 µM | UACC-62 29.4 µM | K562 19 µM | SF-268 69.8 µM | OVCAR-5 40.6 µM | HT-29 20.1 µM
